Experimental data: patent publication US9180107B2 (NANOPHARMACEUTICALS LLC, priority 2009, dated 2015)

Columns and labels:
MDA-MB cells = assay: Pro-apoptotic gene expression by RT-PCR; type: cell-based, human; details: 10^−6 M
Protocol: MDA-MB cells were treated daily with 10^−6M of tetrac or nano-tetrac in bellows perfusion culture system. Cells were harvested after 3 days of treatment and total RNA was extracted. RT-PCR was conducted as described in Example 1, infra.
Total RNA was isolated as described previously. (See Lin et al., 2008. Carcinogenesis. 29:62-69). First strand complementary DNAs were synthesized from 1 μg of total RNA using oligo dT and AMV Reverse Transcriptase (Promega, Madison, Wis.). First-strand cDNA templates were amplified for GAPDH, c-fos, PIG3, c-Jun, and BAD mRNAs by polymerase chain reaction (PCR), using a hot start (Ampliwax, Perkin Elmer, Foster City, Calif.). Primer sequences were GAPDH [5′-[…]-3′ (forward) (SEQ ID NO: 1) and 5′-[…]-3′ (reverse) (SEQ ID NO:2)], c-fos [5′-[…]-3′(forward) (SEQ ID NO:3) and 5′-CAGTCA-[…]-3′ (reverse) (SEQ ID NO:4)], PIG3 [5′-[…]-[…]-3′(forward) (SEQ ID NO:5) and 5′-[…]-3′ (reverse) (SEQ ID NO:6)], c-jun [5′-[…]-3′ (forward) (SEQ ID NO:7) and 5′-[…]-3′ (reverse) (SEQ ID NO:8)] and BAD [5′-GTT-[…]-3′ (forward) (SEQ ID NO:9) and 5′-[…]-3′ (reverse) (SEQ ID NO:10)]. The PCR cycle was an initial step of 95° C. for 3 min, followed by 94° C. for 1 min, 55° C. for 1 min, 72° C. for 1 min, then 25 cycles and a final cycle of 72° C. for 8 min. […] Photographs were scanned under direct light for quantitation and illustration. […]

[1] = test system: Human adenoid cystic carcinoma TGS112T cells; assay: PCNA western blot (thyroid hormone-induced proliferation); type: cell-based
From the text: The techniques have been described in a number of publications. (See Davis et al., 2006. Cancer Res. 66:7270-7275; Lin et al., 2007. Steroids. 72:180-187; Lin et al., 2008. Carcinogenesis. 29:62-69; and Davis et al., 2004. Circ Res. 94:1500-1506, each of which is herein incorporated by reference in its entirety). Nucleoproteins were separated on discontinuous SDS-PAGE (9% gels) and the proteins transferred by electroblotting to nitrocellulose membranes (Millipore, Bedford, Mass.). After blocking with 5% milk in Tris-buffered saline containing 0.1% Tween, the membranes were incubated with selected primary antibodies overnight. The secondary antibodies were either goat anti-rabbit IgG (1:1000, Dako, Carpenteria, Calif.) or rabbit anti-mouse IgG (1:1000, Dako), depending upon the origin of the primary antibody. Immunoreactive proteins were then detected by chemiluminescence.
(§1) Human adenoid cystic carcinoma TGS112T cells were cultured in medium that contained 0.25% hormone-stripped serum for 2 d and then treated with 10^−7 M tetrac or nano-tetrac for 30 min prior institution of 10^−7 M T4 treatment for 24 h. Nuclear proteins were separated by SDS-PAGE followed by western blot analysis with proliferating-cell nuclear antigen (PCNA) antibody. Thyroid hormone-induced PCNA accumulation was inhibited by tetrac. (See FIG. 6A). […] (See FIG. 6A). Inhibition of thyroid hormone-induced proliferation was confirmed by inhibition by tetrac and nano-tetrac of thyroid hormone-induced accumulation and [^3H]-thymidine incorporation. (See FIG. 6B). […] (See FIG. 6B). […] The effect of nano-tetrac and tetrac on cell proliferation was examined by counting TGS112T cells which were treated daily with 10^−6 M tetrac or 10^−6 M nano-tetrac. […] (See FIG. 6C).

[2] = test system: monkey kidney epithelial CV-1 cells; assay: Proliferation of non-malignant cells; type: cell-based, African green monkey; details: 10^−6M daily for 7 days
Protocol: FIG. 9 is a series of graphs showing the comparison of nano-tetrac and tetrac on cell proliferation in non-malignant cells. CV-1 cells (FIG. 9A) and 293 T cells (FIG. 9B) were treated daily with 10^−6 M tetrac or nano-tetrac. Cells were harvested at the time points indicated. Total cell numbers taken after each treatment were used as an indicator for tetrac- or nano-tetrac-induced anti-proliferation.
In order to confirm that tetrac and nano-tetrac only suppress cell proliferation in cancer cells, tetrac and nano-tetrac were also examined for potential anti-proliferative effects on immortalized non-malignant cells, using monkey kidney epithelial CV-1 cells and human embryonic kidney 293T cells. The cells were treated daily with either 10^−6M tetrac or 10^−6M nano-tetrac for 7 days, then were harvested, counted and examined microscopically.

[3] = test system: Human adenoid cystic carcinoma TGS112T cells; assay: [3H]-thymidine incorporation; type: cell-based
Protocol: TGS112T cells were seeded in 24-well trays and exposed to 10% hormone-depleted FBS-supplemented medium for 2 d, then treated with 0.25% hormone-depleted FBS-supplemented medium prior to starting the experiments. Aliquots of cells were treated with T4, tetrac or nano-tetrac as indicated, as well as 1 μCi [^3H]-thymidine (final concentration, 13 nM) for 24 h. Cells were then washed twice with cold PBS. TCA (5%, 1 mL) was added and the plate was held at 4° C. for 30 min. The precipitate was washed twice with cold ethanol; 2% SDS (1 mL) was added to each well and the TCA-precipitable radioactivity was quantitated in a liquid scintillation counter.
as §1

Compound: O=C(O)Cc1cc(I)c(Oc2cc(I)c(O)c(I)c2)c(I)c1 [tetrac, Tetraiodothyroacetic acid]
- expression of c-fos (MDA-MB cells): increased expression
- expression of c-jun (MDA-MB cells): increased expression
- Thyroid hormone-induced PCNA accumulation ([1]; 10^−7 M tetrac, 10^−7 M T4, 24 h): inhibited
- Proliferation of TGS112T cells (agent alone) ([1]; 10^−7 M, 24 h): little effect alone
- change in cell numbers and morphology vs untreated control [2]: no significant change
- reduction of T4-induced thymidine incorporation ([3]; 10^−7 M with 10^−7 M T4, 24 h): 5 fold
- effect of agent alone on thymidine incorporation ([3]; 10^−7 M, 24 h): stimulated thymidine incorporation
